According to US20040044032A1, “Farnesyl protein transfer inhibitors for the treatment of inflammatory bowel disease” (priority 2003, published 2004):
Where two headings read alike, the source gives them in different places.

Experiments:
[1] = test system: DSS-induced colitis in mice; type: in vivo; settings: for Mean Weight (±SEM) DAY 0: Day 0 (baseline); for Mean Colon Length Cm ± SEM: necropsy Day 7; for deaths: 10 mice/group
Text: The purpose of this study was to identify, characterize and document the preventative actions of compound 75 above, namely (+)-6-[amino(4-chlorophenyl) (1-methyl-1H-imidazol-5-yl)methyl]-4-(3-chlorophenyl)-1-methyl-2(1H)-quinolinone, a compound of formulae (I), in an experimental model of inflammatory bowel disease in mice.
A group of female Swiss-Webster mice was received from Ace Animals, Inc., Boyertown, Pa. The animals were grouped housed (5 mice/cage) in plastic cages with water absorbent bedding. […] The animals were fed Purina Rodent Chow #5012 and filtered tap water was supplied ad libitum by automatic watering system (during acclimation).
Following an acclimation period of 9 days, 40 healthy mice were selected for this study. The test animals were distributed (10 mice/group) into each one of the 4 test groups described below. There were no statistical significant differences between the mean group body weights.
Individual doses were calculated based on daily body weights. Prior to administration, Compound 75 was mixed with the vehicle (Beta cyclodextrin (40%) in 0.1 N HCL). This mixture was further diluted with 0.1 N HCL. The resulting mixture was then used to prepare the dilutions for groups 3 and 4. A 20% solution of Beta cyclodextrin in 0.1 N HCL was used for Groups 1 and 2 and constituted the vehicle control. Groups 2 through 4 were given a 5% w/w solution of dextran sulfate sodium (DSS) in distilled water substituted for their normal water supply (approximately 10 ml/mouse/day) from Days 0 through 6. Each group of animals received the appropriate amount of the test substance, as described above, by intubation using a stainless steel ball-tipped gavage needle attached to an appropriate syringe.
(§1) All mice were weighed daily and observed for signs of gross toxicity and behavioural changes, consistency of stool and presence of gross blood during the study. On Day 7, all animals were euthanized by CO2 inhalation and necropsied. Following euthanasia, a stool sample was obtained from the colon of each animal and tested for occult blood (Quik-Cult, Laboratory Diagnostics Co., Morganville, N.J.). The colons were then removed and the length from the colo-cecal junction to the end of the distal rectum was measured. A segment of colon was collected from each animal and preserved in 10% formalin.
(§2) For each group, the disease activity index (DAI) was determined by evaluating changes in weight, Hemoccult positivity or gross bleeding and stool consistency using the following system.
(§3) Data was analyzed using analysis of variance (single factor). Statistically methods included the Mann-Whitney test, ANOVA and Turkey-Kramer Multiple Comparisons test.
(§4) Statistical significance between test and control groups was established at a probability of p<0.05.

[2] = test system: DSS-induced colitis in mice; experiment: Prevention of DSS-induced colitis in mice, repeat study with lower PO doses in 0.1 N HCl; type: in vivo; settings: for weight DAY 0: Day 0 (baseline); for % Inh. Colonic Shortening / % of Normal Length Shortening / DAI mean ± SEM / DAINWT mean ± SEM / Mean Colon Length Cm ± SEM: 5% DSS days 0-7
Text: as §1, §2, §3, §4
In view of the above results the experiment was repeated with lower doses of compound 75. The above procedure was followed with the following groups
Individual doses were calculated based on daily body weights. Prior to administration, 50 mg of Compound 75 was diluted with 10 milliliters of 0.1N HCl (50 mg/kg for Group 5). The resulting solution was then further diluted twice, with 5 ml increments and used for the 25 (Group 4) and 12.5 (Group 3) mg/kg dose levels. The 0.1 N HCl was used for Groups 1 and 2 and constituted the vehicle control. Groups 2 through 5 were given a 5% w/w solution of dextran sulfate sodium (DSS) in distilled water substituted for their normal water supply (approximately 10 ml:mouse/day) from Days 0 through 7. Each group of animals received the appropriate amount of the test substance, as described above, by intubation using a stainless steel ball-tipped gavage needle attached to an appropriate syringe.

[3] = 25 mg/kg PO bid days 0-6, 5% DSS
[4] = 50 mg/kg PO bid days 0-6, 5% DSS

SMILES: Cn1cncc1C(N)(c1ccc(Cl)cc1)c1ccc2c(c1)c(-c1cccc(Cl)c1)cc(=O)n2C (single isomer, unassigned; (+)) [Compound 75, (+)-6-[amino(4-chlorophenyl)(1-methyl-1H-imidazol-5-yl)methyl]-4-(3-chlorophenyl)-1-methyl-2(1H)-quinolinone]
- Mean Weight (±SEM) DAY 0 ([1]; 25 mg/kg PO bid + DSS): 25.1 ± 0.5 grams
- % weight change (±SEM) DAY 5 ([1]; 25 mg/kg PO bid + DSS): −8.3 ± 1.5%
- Mean Weight (±SEM) DAY 5 ([1]; 25 mg/kg PO bid + DSS): 23.0 ± 0.5 grams
- % weight change (±SEM) DAY 6 ([1]; 25 mg/kg PO bid + DSS): −8.7 ± 2.7%
- Mean Weight (±SEM) DAY 6 ([1]; 25 mg/kg PO bid + DSS): 22.9 ± 0.7 grams
- % weight change (±SEM) DAY 7 ([1]; 25 mg/kg PO bid + DSS): −9.6 ± 3.5%
- Mean Weight (±SEM) DAY 7 ([1]; 25 mg/kg PO bid + DSS): 22.7 ± 0.9 grams
- % of Normal Length Shortening [1, 3]: 82.0%
- Blood in Feces (%) [1, 3]: 0%
- DAI mean ± SEM [1, 3]: 1.70 ± 0.26
- DAINWT Mean ± SEM (DAI without body weight parameter) [1, 3]: 1.50 ± 0.22
- Mean Colon Length Cm ± SEM [1, 3]: 9.7 ± 0.3 Cm
- deaths ([1]; 25 mg/kg dose): 1
- Mean Weight (±SEM) DAY 0 ([1]; 50 mg/kg PO bid + DSS): 25.6 ± 0.5 grams
- % weight change (±SEM) DAY 5 ([1]; 50 mg/kg PO bid + DSS): −9.5 ± 1.3%
- Mean Weight (±SEM) DAY 5 ([1]; 50 mg/kg PO bid + DSS): 23.1 ± 0.5 grams
- % weight change (±SEM) DAY 6 ([1]; 50 mg/kg PO bid + DSS): −8.8 ± 2.2%
- Mean Weight (±SEM) DAY 6 ([1]; 50 mg/kg PO bid + DSS): 23.3 ± 0.8 grams
- % weight change (±SEM) DAY 7 ([1]; 50 mg/kg PO bid + DSS): −9.2 ± 1.9%
- Mean Weight (±SEM) DAY 7 ([1]; 50 mg/kg PO bid + DSS): 23.2 ± 0.7 grams
- % of Normal Length Shortening [1, 4]: 77.9%
- Blood in Feces (%) [1, 4]: 22%
- DAI mean ± SEM [1, 4]: 2.11 ± 0.25
- DAINWT Mean ± SEM (DAI without body weight parameter) [1, 4]: 2.06 ± 0.28
- Mean Colon Length Cm ± SEM [1, 4]: 9.2 ± 0.1 Cm
- deaths ([1]; 50 mg/kg dose): 1
- prevention of colitis produced by 5% Dextran Sulfate Sodium ([1]; PO bid, 5% DSS): significant activity
- protection against weight loss ([1]; any dose (25 and 50 mg/kg PO bid)): No significant protection
- shortening of the colon produced by DSS ([1]; dose levels of 25 and 50 mg/kg PO bid): prevented
- weight DAY 0 ([2]; 12.5 mg/kg PO + DSS): 23.6 ± 0.3
- % change (weight) DAY 5 ([2]; 12.5 mg/kg PO + DSS): +1.3 ± 1.0%
- weight DAY 5 ([2]; 12.5 mg/kg PO + DSS): 23.9 ± 0.4
- % change (weight) DAY 6 ([2]; 12.5 mg/kg PO + DSS): 0.0 ± 1.0%
- weight DAY 6 ([2]; 12.5 mg/kg PO + DSS): 23.6 ± 0.4
- % change (weight) DAY 7 ([2]; 12.5 mg/kg PO + DSS): +1.3 ± 1.0%
- weight DAY 7 ([2]; 12.5 mg/kg PO + DSS): 23.9 ± 0.4
- % Inh. Colonic Shortening ([2]; 12.5 mg/kg PO daily): 65%
- % of Normal Length Shortening ([2]; 12.5 mg/kg PO daily): 89.6%
- DAI mean ± SEM ([2]; 12.5 mg/kg PO daily): 1.57 ± 0.17
- DAINWT mean ± SEM ([2]; 12.5 mg/kg PO daily): 2.25 ± 0.25
- Mean Colon Length Cm ± SEM ([2]; 12.5 mg/kg PO daily): 10.0 ± 0.1 Cm
- weight DAY 0 ([2]; 25 mg/kg PO + DSS): 24.2 ± 0.4
- weight DAY 5 ([2]; 25 mg/kg PO + DSS): 24.7 ± 0.6
- % change (weight) DAY 6 ([2]; 25 mg/kg PO + DSS): −1.2 ± 1.0%
- weight DAY 6 ([2]; 25 mg/kg PO + DSS): 23.9 ± 0.5
- % change (weight) DAY 7 ([2]; 25 mg/kg PO + DSS): +2.9 ± 1.0%
- weight DAY 7 ([2]; 25 mg/kg PO + DSS): 24.9 ± 0.5
- % Inh. Colonic Shortening ([2]; 25 mg/kg PO): 58%
- % of Normal Length Shortening ([2]; 25 mg/kg PO): 88.7%
- DAI mean ± SEM ([2]; 25 mg/kg PO): 1.53 ± 0.17
- DAINWT mean ± SEM ([2]; 25 mg/kg PO): 2.30 ± 0.25
- Mean Colon Length Cm ± SEM ([2]; 25 mg/kg PO): 9.9 ± 0.3 Cm
- weight DAY 0 ([2]; 50 mg/kg PO + DSS): 23.9 ± 0.3
- % change (weight) DAY 5 ([2]; 50 mg/kg PO + DSS): −0.7 ± 1.0%
- weight DAY 5 ([2]; 50 mg/kg PO + DSS): 23.9 ± 0.3
- % change (weight) DAY 6 ([2]; 50 mg/kg PO + DSS): −1.6 ± 1.0%
- weight DAY 6 ([2]; 50 mg/kg PO + DSS): 23.5 ± 0.3
- % change (weight) DAY 7 ([2]; 50 mg/kg PO + DSS): −0.3 ± 2.0%
- weight DAY 7 ([2]; 50 mg/kg PO + DSS): 23.8 ± 0.3
- % Inh. Colonic Shortening ([2]; 50 mg/kg PO): 52%
- % of Normal Length Shortening ([2]; 50 mg/kg PO): 87.0%
- DAI mean ± SEM ([2]; 50 mg/kg PO): 1.70 ± 0.18
- DAINWT mean ± SEM ([2]; 50 mg/kg PO): 2.30 ± 0.24
- Mean Colon Length Cm ± SEM ([2]; 50 mg/kg PO): 9.7 ± 0.2 Cm
- deaths during the duration of the experiment ([2]; 12.5, 25, 50 mg/kg PO): No deaths
- dose of maximal effectiveness on prevention of colonic shortening ([2]; PO daily, lowest dose tested): 12.5 mg/kg
- protection based on DAI and DAINWT ([2]; all doses (12.5, 25, 50 mg/kg PO)): statistically significant protection
